Consider four compounds from ChEMBL document CHEMBL4334490, “Natural products as important tyrosine kinase inhibitors” (Eur J Med Chem, 2019).

In this experiment the target is Epidermal growth factor receptor (Homo sapiens, UniProt P00533). Description: Inhibition of EGFR (unknown origin).
Epidermal growth factor receptor, sequence (P00533 whole entry): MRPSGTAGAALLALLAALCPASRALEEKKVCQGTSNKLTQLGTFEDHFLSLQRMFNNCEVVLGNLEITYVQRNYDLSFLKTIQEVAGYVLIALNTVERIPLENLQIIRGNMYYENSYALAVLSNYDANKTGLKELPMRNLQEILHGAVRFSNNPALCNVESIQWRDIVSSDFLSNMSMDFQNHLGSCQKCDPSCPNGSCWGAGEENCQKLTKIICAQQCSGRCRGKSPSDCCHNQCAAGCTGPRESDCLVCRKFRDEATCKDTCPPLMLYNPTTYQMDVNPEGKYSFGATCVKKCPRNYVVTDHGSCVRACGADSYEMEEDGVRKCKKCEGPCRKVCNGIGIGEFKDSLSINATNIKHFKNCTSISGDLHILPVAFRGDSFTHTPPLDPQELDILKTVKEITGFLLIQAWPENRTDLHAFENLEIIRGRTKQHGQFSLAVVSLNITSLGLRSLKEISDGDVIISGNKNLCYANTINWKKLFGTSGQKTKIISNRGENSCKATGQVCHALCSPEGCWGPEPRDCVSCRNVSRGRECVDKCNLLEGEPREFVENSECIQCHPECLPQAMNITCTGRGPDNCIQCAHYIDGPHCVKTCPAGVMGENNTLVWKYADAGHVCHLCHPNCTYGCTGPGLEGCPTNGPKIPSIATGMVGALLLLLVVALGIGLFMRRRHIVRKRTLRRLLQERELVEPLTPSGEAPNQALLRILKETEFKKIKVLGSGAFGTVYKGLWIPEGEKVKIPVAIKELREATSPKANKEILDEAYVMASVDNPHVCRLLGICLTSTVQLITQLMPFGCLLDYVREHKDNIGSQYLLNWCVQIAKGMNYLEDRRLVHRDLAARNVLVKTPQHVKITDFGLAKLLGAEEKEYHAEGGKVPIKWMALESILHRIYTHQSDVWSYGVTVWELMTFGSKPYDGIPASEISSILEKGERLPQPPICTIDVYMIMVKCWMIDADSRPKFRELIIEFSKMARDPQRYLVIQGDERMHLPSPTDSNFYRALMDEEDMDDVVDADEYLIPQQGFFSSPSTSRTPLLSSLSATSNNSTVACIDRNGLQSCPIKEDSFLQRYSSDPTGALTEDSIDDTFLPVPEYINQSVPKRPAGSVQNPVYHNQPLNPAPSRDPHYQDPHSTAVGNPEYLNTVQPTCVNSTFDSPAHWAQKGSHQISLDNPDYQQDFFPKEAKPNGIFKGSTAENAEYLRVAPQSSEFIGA
A word on the IC50: it is the concentration at which inhibition is half-maximal. A lower IC50 goes with greater potency. `N=C1NC(=O)/C(=C2/CCNC(=O)c3[nH]c(Br)c(Br)c32)N1` gave an IC50 of 21.1 µM.

`N=C1N=C(NCCS(=O)(=O)O)/C(=C/C(O)CNC(=O)c2cc(Br)c(Br)[nH]2)N1` (centres undefined) [TAUROACIDIN A]: the half-maximal inhibitory concentration (IC50) was 37.9 µM.

As for `N=C1NC(=O)/C(=C2/CCNC(=O)c3[nH]cc(Br)c32)N1`, it took 18.5 µM to reach half-maximal inhibition (IC50).

`COc1ccc(Cc2nc(-c3cc(Br)c(OCCCN(C)C)c(Br)c3)c[nH]c2=O)cc1Br` [Ma'edamine A] had an IC50 of 10.6 µM.
